From paper PMC12189828, “Substitution of Proline Residues by 4-Fluoro-L-Proline Affects the Mechanism of the Proline-Rich Antimicrobial Peptide Api137” (Antibiotics, 2025)
Where a SMILES comes first, the peptide text is derived from it. [ ]: non-standard residue; d: D form. The star is where a group is joined. Orn(α-tetramethylguanidino) = CN(C)C(=N[C@@H](CCCN)C(=O)*)N(C)C; Pro(trans-4-F) = O=C(O)[C@@H]1C[C@@H](F)CN1; Pro(cis-4-F) = O=C(O)[C@@H]1C[C@H](F)CN1

Assays:
E. coli RN31 = assay: Growth inhibition of E. coli RN31 during 90 min exponential growth phase; type: cell-based, Escherichia coli; conditions: E. coli RN31, 33% TSB, peptide 8 µg/mL, 90 min, OD600; two biological replicates (n = 2)
Protocol: The following steps were performed on ice. Cells were harvested by centrifugation (4000× g, 4 °C, 25 min), washed with TICO buffer (20 mmol/L Hepes-KOH, pH 7.6, 6 mmol/L MgAc2, 30 mmol/L KAc), centrifuged (4000× g, 25 min, 4 °C), and stored at −80 °C. The cell pellet was suspended in TICO buffer (500 µL) and mixed with silica beads (zirconium glass pellets, 100 µm diameter; Carl Roth; Karlsruhe, Germany) to lyse the cells on a FastPrep-24^TM 5G (MP Biomedicals, Solon, OH, USA) using three disruption cycles (30 s, 6.0 m/s) interrupted by 1 min of incubation on ice after each cycle. Cell debris was removed by centrifugation (5000× g, 4 °C, 5 min), the supernatant was transferred to a new reaction tube, centrifuged (20,000× g, 4 °C, 20 min), the absorbance was recorded at 260 nm on a NanoPhotometer® NP80, and the sample was stored at −80 °C. […]

[1] = test system: in vitro expression of sfGFP in the presence of RF1; assay: In vitro transcription-translation (iTT) assay of sfGFP in the presence of RF1; type: biochemical; conditions: peptide 5 µmol/L, RF1, 37 °C, 2 h, fluorescence, normalized to absence of PrAMPs, n = 3
Protocol: The sfGFP expression analysis relied on the NEB PureExpress Delta RF123 Kit (New England Biolabs, Frankfurt, Germany). The DNA template encoding sfGFP with a UAG stop codon was amplified from the pY71sfGFP vector by PCR using the primers sfGFP fwd ([…]) and sfGFP rev ([…]). The release factor RF1 of the kit was diluted 50-fold (v/v) in 1× Pure System Buffer (PSB, 1 mol/L magnesium acetate, 0.5 mol/L K3PO4 (pH 7.3), 1 mol/L potassium glutamate, 1 mol/L NH4Cl, 0.5 mol/L CaCl2, 1 mol/L spermidine, 0.1 mol/L putrescine, 0.1 mol/L DTT). sfGFP expression was performed in a freshly prepared mixture of kit solution A (2 µL), kit solution B (1.5 µL), 50-fold diluted RF1 (0.5 µL), sfGFP template (0.1325 pmol, 35 ng) or water as control (0.25 µL), PSB (0.25 µL), and a PrAMP (50 or 0 µmol/L) dissolved in water (0.5 µL). The reaction mixture was transferred to a black 384-well plate (flat bottom, PS, 784900, Greiner Bio-One GmbH), covered with a lid, and incubated (37 °C, 2 h) in a microplate reader (Gemini EM, Molecular Devices, San Jose, CA, USA). Fluorescence was recorded every 10 min (λex = 485 nm, λem = 535 nm).

[2] = test system: 50S subunit assembly / 70S ribosome in E. coli RN31; assay: Ribosome profile analysis (RPA), sucrose gradient of E. coli RN31 lysate; type: cell-based, Escherichia coli; conditions: 90 min; for RPA [pre-50S formation]: E. coli RN31, 33% TSB, peptide 8 µg/mL, 5–25% sucrose gradient, n = 2 (Api137 n = 7)
Protocol: E. coli RN31 was grown in 33% TSB (37 °C, 200 rpm) from a starting OD600 of 0.05 to an OD600 of 0.2, measured on a NanoPhotometer® (NP80; Implen; Westlake Village, CA, USA), and divided into subcultures that were inoculated with a peptide ([…]) before being cultured for 90 min (37 °C, 200 rpm). The following steps were performed on ice. Cells were harvested by centrifugation (4000× g, 4 °C, 25 min), washed with TICO buffer (20 mmol/L Hepes-KOH, pH 7.6, 6 mmol/L MgAc2, 30 mmol/L KAc), centrifuged (4000× g, 25 min, 4 °C), and stored at −80 °C. The cell pellet was suspended in TICO buffer (500 µL) and mixed with silica beads (zirconium glass pellets, 100 µm diameter; Carl Roth; Karlsruhe, Germany) to lyse the cells on a FastPrep-24^TM 5G (MP Biomedicals, Solon, OH, USA) using three disruption cycles (30 s, 6.0 m/s) interrupted by 1 min of incubation on ice after each cycle. Cell debris was removed by centrifugation (5000× g, 4 °C, 5 min), the supernatant was transferred to a new reaction tube, centrifuged (20,000× g, 4 °C, 20 min), the absorbance was recorded at 260 nm on a NanoPhotometer® NP80, and the sample was stored at −80 °C.
A 5% (w/v) sucrose solution (6.5 mL) in TICO buffer containing 2-mercaptoethanol (4 mmol/L) was poured into an open-top centrifuge tube (13.2 mL, 14 × 89 mm, Beckman Coulter) and bottomed with a 25% (w/v) sucrose solution (6.5 mL) in TICO buffer containing 2-mercaptoethanol (4 mmol/L) using a cannula. The tube was sealed with parafilm and placed horizontally at 4 °C for 3 h and vertically at 4 °C for 30 min. A portion of the upper layer (550 µL) was replaced by lysate (500 µL, A260 = 30) and centrifuged using a swing-out rotor (SW 41 Ti, 52,500× g, 4 °C, 19 h) without a brake. The contents were transferred from bottom-up to obtain equal volumes in all wells of a black 96-well plate with a flat bottom (96 Well PP black Greiner Bio-One GmbH, Frickenhausen, Germany) using the Äkta Purifier 10 system, and absorbance was recorded at a wavelength of 254 nm. Fluorescence was measured in the plate using the PARADIGM at excitation (λex) and emission (λem) wavelengths of 485 nm and 535 nm for eGFP and 585 nm and 635 nm, respectively, for mCherry and normalized to the 70S ribosome peak (set to 100%).

## CC[C@H](C)[C@H](NC(=O)[C@H](Cc1ccc(O)cc1)NC(=O)[C@@H](NC(=O)[C@@H]1CCCN1C(=O)[C@H](CCCNC(=N)N)NC(=O)[C@H](CC(N)=O)NC(=O)[C@H](CC(N)=O)NC(=O)[C@H](CCCN)N=C(N(C)C)N(C)C)C(C)C)C(=O)N1C[C@@H](F)C[C@H]1C(=O)N[C@@H](CCCNC(=N)N)C(=O)N1CCC[C@H]1C(=O)N[C@@H](CCCNC(=N)N)C(=O)N1CCC[C@H]1C(=O)N1CCC[C@H]1C(=O)N[C@@H](Cc1c[nH]cn1)C(=O)N1CCC[C@H]1C(=O)N[C@@H](CCCNC(=N)N)C(=O)N[C@@H](CC(C)C)C(=O)O [Api845] ({Orn(α-tetramethylguanidino)}-NNRPVYI[Pro(cis-4-F)]RPRPPHPRL-OH)
E. coli RN31
  reduction of bacterial growth vs untreated control: 62%
[1]
  Residual iTT (sfGFP expression relative to no PrAMP): 26 ± 5.7%
[2]
  RPA [pre-50S formation]: yes

## CC[C@H](C)[C@H](NC(=O)[C@H](Cc1ccc(O)cc1)NC(=O)[C@@H](NC(=O)[C@@H]1CCCN1C(=O)[C@H](CCCNC(=N)N)NC(=O)[C@H](CC(N)=O)NC(=O)[C@H](CC(N)=O)NC(=O)[C@H](CCCN)N=C(N(C)C)N(C)C)C(C)C)C(=O)N1CCC[C@H]1C(=O)N[C@@H](CCCNC(=N)N)C(=O)N1C[C@H](F)C[C@H]1C(=O)N[C@@H](CCCNC(=N)N)C(=O)N1CCC[C@H]1C(=O)N1CCC[C@H]1C(=O)N[C@@H](Cc1c[nH]cn1)C(=O)N1CCC[C@H]1C(=O)N[C@@H](CCCNC(=N)N)C(=O)N[C@@H](CC(C)C)C(=O)O [Api842] ({Orn(α-tetramethylguanidino)}-NNRPVYIPR[Pro(trans-4-F)]RPPHPRL-OH)
E. coli RN31
  reduction of bacterial growth vs untreated control: 49%
[1]
  Residual iTT (sfGFP expression relative to no PrAMP): 31 ± 0.7%
[2]
  RPA [pre-50S formation]: reduced

## CC[C@H](C)[C@H](NC(=O)[C@H](Cc1ccc(O)cc1)NC(=O)[C@@H](NC(=O)[C@@H]1CCCN1C(=O)[C@H](CCCNC(=N)N)NC(=O)[C@H](CC(N)=O)NC(=O)[C@H](CC(N)=O)NC(=O)[C@H](CCCN)N=C(N(C)C)N(C)C)C(C)C)C(=O)N1CCC[C@H]1C(=O)N[C@@H](CCCNC(=N)N)C(=O)N1CCC[C@H]1C(=O)N[C@@H](CCCNC(=N)N)C(=O)N1C[C@@H](F)C[C@H]1C(=O)N1CCC[C@H]1C(=O)N[C@@H](Cc1c[nH]cn1)C(=O)N1CCC[C@H]1C(=O)N[C@@H](CCCNC(=N)N)C(=O)N[C@@H](CC(C)C)C(=O)O [Api843] ({Orn(α-tetramethylguanidino)}-NNRPVYIPRPR[Pro(cis-4-F)]PHPRL-OH)
E. coli RN31
  reduction of bacterial growth vs untreated control: 56%
[1]
  Residual iTT (sfGFP expression relative to no PrAMP): 28 ± 3.2%
[2]
  RPA [pre-50S formation]: yes

## CC[C@H](C)[C@H](NC(=O)[C@H](Cc1ccc(O)cc1)NC(=O)[C@@H](NC(=O)[C@@H]1C[C@H](F)CN1C(=O)[C@H](CCCNC(=N)N)NC(=O)[C@H](CC(N)=O)NC(=O)[C@H](CC(N)=O)NC(=O)[C@H](CCCN)N=C(N(C)C)N(C)C)C(C)C)C(=O)N1CCC[C@H]1C(=O)N[C@@H](CCCNC(=N)N)C(=O)N1CCC[C@H]1C(=O)N[C@@H](CCCNC(=N)N)C(=O)N1CCC[C@H]1C(=O)N1CCC[C@H]1C(=O)N[C@@H](Cc1c[nH]cn1)C(=O)N1CCC[C@H]1C(=O)N[C@@H](CCCNC(=N)N)C(=O)N[C@@H](CC(C)C)C(=O)O [Api839] ({Orn(α-tetramethylguanidino)}-NNR[Pro(cis-4-F)]VYIPRPRPPHPRL-OH)
[1]
  Residual iTT (sfGFP expression relative to no PrAMP): 23 ± 0.2%
[2]
  RPA [pre-50S formation]: yes

## CC[C@H](C)[C@H](NC(=O)[C@H](Cc1ccc(O)cc1)NC(=O)[C@@H](NC(=O)[C@@H]1CCCN1C(=O)[C@H](CCCNC(=N)N)NC(=O)[C@H](CC(N)=O)NC(=O)[C@H](CC(N)=O)NC(=O)[C@H](CCCN)N=C(N(C)C)N(C)C)C(C)C)C(=O)N1CCC[C@H]1C(=O)N[C@@H](CCCNC(=N)N)C(=O)N1CCC[C@H]1C(=O)N[C@@H](CCCNC(=N)N)C(=O)N1CCC[C@H]1C(=O)N1C[C@@H](F)C[C@H]1C(=O)N[C@@H](Cc1c[nH]cn1)C(=O)N1CCC[C@H]1C(=O)N[C@@H](CCCNC(=N)N)C(=O)N[C@@H](CC(C)C)C(=O)O [Api847] ({Orn(α-tetramethylguanidino)}-NNRPVYIPRPRP[Pro(cis-4-F)]HPRL-OH)
[1]; listed as 4S-Fpr14
  Residual iTT (sfGFP expression relative to no PrAMP): 21%
[1]; listed as Pro14 4S-Fpr (cis)
  Residual iTT (sfGFP expression relative to no PrAMP): 21 ± 0.2%
[2]
  RPA [pre-50S formation]: reduced
[2]; E. coli RN31, adjusted peptide concentration 16 µg/mL
  ribosomal profile, pre-50S peak: a pre-50S peak was observed

## CC[C@H](C)[C@H](NC(=O)[C@H](Cc1ccc(O)cc1)NC(=O)[C@@H](NC(=O)[C@@H]1C[C@@H](F)CN1C(=O)[C@H](CCCNC(=N)N)NC(=O)[C@H](CC(N)=O)NC(=O)[C@H](CC(N)=O)NC(=O)[C@H](CCCN)N=C(N(C)C)N(C)C)C(C)C)C(=O)N1CCC[C@H]1C(=O)N[C@@H](CCCNC(=N)N)C(=O)N1CCC[C@H]1C(=O)N[C@@H](CCCNC(=N)N)C(=O)N1CCC[C@H]1C(=O)N1CCC[C@H]1C(=O)N[C@@H](Cc1c[nH]cn1)C(=O)N1CCC[C@H]1C(=O)N[C@@H](CCCNC(=N)N)C(=O)N[C@@H](CC(C)C)C(=O)O [Api840] ({Orn(α-tetramethylguanidino)}-NNR[Pro(trans-4-F)]VYIPRPRPPHPRL-OH)
[1]
  Residual iTT (sfGFP expression relative to no PrAMP): 35 ± 0.1%
[2]
  RPA [pre-50S formation]: yes

## CC[C@H](C)[C@H](NC(=O)[C@H](Cc1ccc(O)cc1)NC(=O)[C@@H](NC(=O)[C@@H]1CCCN1C(=O)[C@H](CCCNC(=N)N)NC(=O)[C@H](CC(N)=O)NC(=O)[C@H](CC(N)=O)NC(=O)[C@H](CCCN)N=C(N(C)C)N(C)C)C(C)C)C(=O)N1CCC[C@H]1C(=O)N[C@@H](CCCNC(=N)N)C(=O)N1CCC[C@H]1C(=O)N[C@@H](CCCNC(=N)N)C(=O)N1CCC[C@H]1C(=O)N1C[C@H](F)C[C@H]1C(=O)N[C@@H](Cc1c[nH]cn1)C(=O)N1CCC[C@H]1C(=O)N[C@@H](CCCNC(=N)N)C(=O)N[C@@H](CC(C)C)C(=O)O [Api848] ({Orn(α-tetramethylguanidino)}-NNRPVYIPRPRP[Pro(trans-4-F)]HPRL-OH)
[1]; listed as 4R-Fpr14
  Residual iTT (sfGFP expression relative to no PrAMP): 64%
[1]; listed as Pro14 4R-Fpr (trans)
  Residual iTT (sfGFP expression relative to no PrAMP): 64 ± 4.6%
[2]
  RPA [pre-50S formation]: no
